{"source": "paper PMC6254361", "about": "“The properties of Msh2–Msh6 ATP binding mutants suggest a signal amplification mechanism in DNA mismatch repair” (The Journal of Biological Chemistry, 2018)", "target": "T1, Msh2–Msh6 (Saccharomyces cerevisiae, UniProt P25847+Q03834, P25847:K694M)", "T1 sequence (P25847 1-964 K694M)": "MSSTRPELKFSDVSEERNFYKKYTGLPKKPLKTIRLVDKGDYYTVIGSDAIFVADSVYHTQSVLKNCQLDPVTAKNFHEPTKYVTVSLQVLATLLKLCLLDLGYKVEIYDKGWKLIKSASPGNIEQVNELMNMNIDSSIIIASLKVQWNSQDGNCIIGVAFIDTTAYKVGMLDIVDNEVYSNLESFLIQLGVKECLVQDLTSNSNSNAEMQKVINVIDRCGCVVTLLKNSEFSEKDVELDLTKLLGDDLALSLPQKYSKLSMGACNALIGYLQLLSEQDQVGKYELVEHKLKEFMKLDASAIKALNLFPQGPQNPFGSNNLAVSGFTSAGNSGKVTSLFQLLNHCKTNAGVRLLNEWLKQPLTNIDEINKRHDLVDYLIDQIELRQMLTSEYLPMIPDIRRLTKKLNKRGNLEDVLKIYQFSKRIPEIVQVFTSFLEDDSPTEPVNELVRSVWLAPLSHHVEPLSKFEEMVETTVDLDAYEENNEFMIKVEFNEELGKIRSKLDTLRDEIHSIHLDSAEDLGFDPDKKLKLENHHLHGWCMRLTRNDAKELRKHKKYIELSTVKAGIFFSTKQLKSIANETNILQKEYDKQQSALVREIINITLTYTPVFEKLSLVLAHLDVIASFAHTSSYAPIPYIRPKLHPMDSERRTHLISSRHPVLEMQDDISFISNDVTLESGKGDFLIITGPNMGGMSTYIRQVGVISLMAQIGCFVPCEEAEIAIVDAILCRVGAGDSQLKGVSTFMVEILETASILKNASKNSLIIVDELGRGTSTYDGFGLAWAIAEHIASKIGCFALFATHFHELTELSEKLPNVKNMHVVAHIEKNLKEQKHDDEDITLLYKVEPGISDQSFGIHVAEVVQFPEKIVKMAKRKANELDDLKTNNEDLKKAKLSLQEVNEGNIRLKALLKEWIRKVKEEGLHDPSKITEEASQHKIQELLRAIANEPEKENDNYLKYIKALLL", "T1 sequence (Q03834 1-1242)": "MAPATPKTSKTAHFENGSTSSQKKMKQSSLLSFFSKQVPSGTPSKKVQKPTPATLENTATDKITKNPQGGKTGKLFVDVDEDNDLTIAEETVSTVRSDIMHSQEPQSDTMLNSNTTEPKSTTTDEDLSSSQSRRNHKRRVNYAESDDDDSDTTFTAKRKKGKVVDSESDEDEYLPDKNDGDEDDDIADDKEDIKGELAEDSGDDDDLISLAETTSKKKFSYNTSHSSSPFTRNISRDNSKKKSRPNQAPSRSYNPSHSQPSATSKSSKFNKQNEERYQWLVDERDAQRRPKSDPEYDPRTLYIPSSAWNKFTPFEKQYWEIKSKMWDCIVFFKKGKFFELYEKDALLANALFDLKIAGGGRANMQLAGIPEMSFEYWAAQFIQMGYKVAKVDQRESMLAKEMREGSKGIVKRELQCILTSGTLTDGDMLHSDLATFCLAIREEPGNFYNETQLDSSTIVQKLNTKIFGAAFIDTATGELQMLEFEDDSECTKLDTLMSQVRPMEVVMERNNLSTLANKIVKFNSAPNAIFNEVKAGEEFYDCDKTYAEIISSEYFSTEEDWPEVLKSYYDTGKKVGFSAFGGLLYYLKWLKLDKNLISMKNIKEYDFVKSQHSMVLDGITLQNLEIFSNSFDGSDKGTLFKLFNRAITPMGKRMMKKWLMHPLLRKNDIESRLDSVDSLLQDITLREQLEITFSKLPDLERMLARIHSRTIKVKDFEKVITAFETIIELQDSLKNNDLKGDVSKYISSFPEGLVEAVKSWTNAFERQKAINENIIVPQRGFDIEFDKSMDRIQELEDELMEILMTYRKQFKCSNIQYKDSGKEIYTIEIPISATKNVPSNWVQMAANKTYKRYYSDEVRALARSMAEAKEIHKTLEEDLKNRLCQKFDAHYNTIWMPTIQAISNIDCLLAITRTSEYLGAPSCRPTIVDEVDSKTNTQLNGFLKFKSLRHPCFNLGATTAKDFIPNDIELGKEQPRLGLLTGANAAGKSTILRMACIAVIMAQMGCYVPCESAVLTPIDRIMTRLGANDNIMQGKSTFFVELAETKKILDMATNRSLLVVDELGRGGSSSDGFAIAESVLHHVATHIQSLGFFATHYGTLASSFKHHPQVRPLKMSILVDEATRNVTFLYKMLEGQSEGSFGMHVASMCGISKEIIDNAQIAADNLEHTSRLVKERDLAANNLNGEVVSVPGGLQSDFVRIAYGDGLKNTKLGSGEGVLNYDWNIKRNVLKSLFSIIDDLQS", "assay": "UV cross-linking of [γ-32P]ATP, SDS-PAGE, phosphorimaging", "assay_type": "binding", "conditions": "labelled compound; no Mg2+, EDTA, pH 8, on ice; Msh2 site at 60 μM ATP, Msh6 site at 1 μM ATP", "data": [{"molecule": "Nc1ncnc2c1ncn2[C@@H]1O[C@H](COP(=O)(O)OP(=O)(O)OP(=O)(O)O)[C@@H](O)[C@H]1O", "note": "[ATP]", "values": [{"measurement": "relative ATP binding", "result": "Msh2(K694M)–Msh6 mutant complex was only defective for binding ATP to the Msh2 subunit"}]}]}
